Test results: patent US12070483B2, “Compositions and methods for treatment of acute lung injury” (THE TRUSTEES OF THE UNIVERSITY OF PENNSYLVANIA, priority 2018, dated 2024)

Key:
[1] = system: mechanically ventilated mice; experiment: Ventilation-induced lung injury (VILI); assay type: in vivo, mouse; settings: PIP-2 2 ug/g in liposomes IT at start of 6 h mechanical ventilation
Method: FIG. 13: Effect of PIP-2 on ventilation-induced lung injury (VILI). Anesthetized mice were mechanically ventilated for 6 h with tidal volume 12 ml/Kg body weight with a respiratory rate 120/min, and 2 cm H2O positive end-expiratory pressure (PEEP). […] Control represents values for normal (non-ventilated) lungs. % Protection was calculated as in Table 1. Results are mean±SE for n=4. *P<0.05 for VILI+PIP vs VILI.

aiPLA2 activity = target: T1, aiPLA2 activity (Homo sapiens, UniProt P30041); experiment: Inhibitory activity of PIP-2 after storage as dry powder at room temp.; assay type: biochemical; settings: for aiPLA2 Activity: PIP-2 stored as dry powder at room temp.
T1 sequence (P30041 1-224): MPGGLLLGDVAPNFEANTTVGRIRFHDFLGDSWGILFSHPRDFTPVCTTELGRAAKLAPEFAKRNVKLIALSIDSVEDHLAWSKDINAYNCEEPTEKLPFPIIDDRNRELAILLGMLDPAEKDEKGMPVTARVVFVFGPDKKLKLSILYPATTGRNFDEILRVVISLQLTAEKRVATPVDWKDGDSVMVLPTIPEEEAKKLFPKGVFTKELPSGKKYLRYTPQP
Method: aiPLA2 activity was measured at intervals to determine how long the peptide could maintain its efficacy as an inhibitor of aiPLA2 activity. The peptide was stable for the 4 months of observation.

[2] = system: mice, intraperitoneal LPS; experiment: Intraperitoneal LPS (15 μg/g) model of ALI with systemic sepsis: survival; settings: LPS 15 μg/g IP
Method: (§1) LPS (15 mg/g body wt) was given to all mice either by: FIG. 7A: intratracheal (IT) or FIG. 7B: intraperitoneal (IP) injection. PIP-2 in liposomes or placebo (liposomes alone) was administered intravenously (IV) 12 h after LPS (this is treatment time zero) and then at 12 or 24 h intervals for a total of 5 doses as indicated by the arrows. FIG. 7A: PIP-2 at 2 μg/g body wt; N=14 for each group. FIG. 7B: PIP-2 at 2 or 20 μg/g body wt.; Placebo group, n=8; PIP-2 2 mg group, n=7; PIP-2 20 mg group, n=10.
(§2) Anesthesized mice were administered LPS (either 5 or 15 μgig body weight) in 20 μl saline that was instilled into the lung through an endotracheal catheter placed at the level of the tracheal carina. […] PIP-2 in liposomes was suspended in 20 μl saline for IV or IT injection. For studies to evaluate the effect of PIP-2 at zero time, LPS administration was followed by liposomes±PIP-2 also given by IT instillation. For studies to evaluate the effect of PIP-2 administered at later times after LPS, the liposomes±PIP-2 were given by injection into a retinal artery. This shift in route of administration was used to minimize damage to the mouse trachea that could occur with repeated tracheostomy and lead to untoward effects on the lung. […] We gave the second dose of PIP-2 at 12 h to be certain of maximal coverage and then went to every 24 h for PIP-2 administration. For the model of sepsis, LPS (15 μg/g body wt.) in 20 μl saline was injected intraperitoneally and mice were treated with IV PIP-2 at either 2 or 20 μg/g body wt; note that the initial dose of PIP-2 for this sepsis model was IV, not IT. We used the same times of PIP-2 administration in the sepsis model as were used for the IT LPS model. After recovery from anesthesia, all mice were maintained in the vivarium with access ad lib to food and water.
We next evaluated the effect of PIP-2 in mice given LPS (15 μg LPS/g body wt.) by the intraperitoneal route as a model for ALI associated with systemic sepsis.

NADPH oxidase (NOX2) = experiment: H2O2 production (Amplex red) of perfused lung 5 min after PIP-2 in saline or liposomes; assay type: in vivo, mouse; settings: IT or IV
Method: FIGS. 1A and 1B: Wild type C57Bl/6 mice at age 8-10 weeks were injected with 2 ug/g body wt of PIP-2 either through an intratracheal catheter (IT) or intravenously (IV). The injected peptide was dissolved in saline or was incorporated into unilamellar liposomes consisting of dipalmitoyl phosphatidylcholine (DPPC), egg phosphatidylcholine (PC), phosphatidylglycerol (PG), and cholesterol (molar ratio of lipids, 50:25:10:15). […] Mice were sacrificed after 5 min, lungs were perfused until cleared of blood, and then subjected to recirculating perfusion under temperature-controlled (37° C.) conditions in the presence of the fluorescent indicator Amplex red plus horseradish peroxidase (HRP) in order to monitor the oxidation of Amplex red by H2O2. The fluorescence of aliquots of perfusate was measured at the indicated times and expressed as arbitrary fluorescence units (AFU). The increasing fluorescence with time of perfusion indicates the production of H2O2 reflecting the activation of cellular NADPH oxidase (NOX2).
The lungs were removed from mice and studied in an isolated system. The slope of the lines indicates the production of oxidants (H2O2).

mice, high dose IT LPS = experiment: High dose intratracheal LPS (15 μg/g): survival and lung injury of survivors
Method: as §1, §2
At the end of each experiment with IT LPS (at either 24 or 120 h), surviving mice were sacrificed by exsanguination under anesthesia. Lungs in situ were cleared of blood by perfusion through the pulmonary artery and then were lavaged through the trachea with saline. The lung was then removed from the thorax for tissue assays. We evaluated the effect of LPS on lung injury by measuring the number of nucleated cells and the protein content in the lung bronchoalveolar lavage fluid (BALf), the lung wet to dry lung weight ratio using the left upper lobe of lung, and thiobarbituric-acid reactive products (TBARS), 8-isoprostanes, and protein carbonyls in the lung homogenate to determine the oxidation of lung tissue lipid and protein components. For studies of mouse mortality, survival plots were constructed using the Kaplan-Meier estimator.
The survival data is plotted with the initial PIP-2 treatment as 0 time; LPS was administered 12 h before PIP-2 (−12 h that is off of the graph in FIG. 7A and FIG. 7B).
Mice were instilled IT with LPS (15 μg/g wt); PIP-2 (2 μg/g body wt) in liposomes was injected (IV) at the times shown in FIG. 7A. Five of the surviving mice were sacrificed at 120 h after LPS; control mice were given liposomes but not LPS. […] Values are mean±SE for N=4 for control and N=5 for LPS+PIP-2.

[3] = system: C57Bl/6 mice, LPS-mediated lung injury; experiment: Acute lung injury after intratracheal LPS (5 μg/g), lungs evaluated at 24 h; assay type: in vivo, mouse; settings: for lung injury, peptide administered along with LPS (0 time): evaluated at 24 hours after LPS; for lung injury, peptide administered at 12-16 hours after LPS: sacrifice @ 24 hours
Method: The IT model of acute lung injury (ALI) as shown in Table 9 was used to test the effects of PIP-2. […] IV administration of PIP-2 was used to avoid a second ‘assault’ on the trachea. Mice were sacrificed at 24 hours and lungs were evaluated for injury as described in Table 9. Protection (%) against lung injury was calculated as [1−(injury with PIP-2−control)/(LPS alone−control)]. Results are mean±SE for n=4. *P<0.01 vs control. ^†P<0.01 vs no PIP, 24 hours.
To study the effect of PIP-2 administration on lung injury, mice were treated with LPS (5 μg/g body weight) given IT. […] PIP-2 (2 μg/g body weight in liposomes) was administered at 0, 12, or 16 h after LPS. We have shown previously that this dose of PIP-2 can inhibit lung aiPLA2 activity by ˜90% for at least 24 h. PIP-2 was given IT at time zero and IV at 12 or 16 h in order to avoid excessive damage to the trachea. Animals were sacrificed and lungs were examined at 24 h after LPS. All indices of lung injury, reflecting lung inflammation, alveolar-capillary barrier dysfunction, lung fluid accumulation, and tissue oxidative stress, were elevated in LPS-treated mice as compared to control (p<0.05). […] Since lung injury was present in lungs at 12 and 16 h after LPS, the normal values at 24 h in lungs from LPS treated mice given PIP-2 at 12 or 16 h can only mean that lungs were able to recover fully from their injury during the 8 to 12 h interval between the administration of PIP-2 and examination of the lungs.

[4] = system: C57Bl/6 mice, LPS-mediated lung injury; experiment: as above; assay type: in vivo, mouse; settings: LPS 5 μg/g IT, sacrifice at 24 hrs
[5] = LPS 5 μg/g IT, PIP-2 2 μg/g IV @12 hr, sacrifice at 24 hrs
[6] = LPS 5 μg/g IT, PIP-2 2 μg/g IV @16 h, sacrifice at 24 hrs
[7] = Control: PIP in liposomes IT, no LPS
[8] = Control: PIP in liposomes, no LPS
[9] = LPS 5 μg/g IT, PIP-4 2 μg/g IV @12 hr, sacrifice at 24 hrs
[10] = LPS 5 μg/g IT, PIP-4 2 μg/g IV @16 h, sacrifice at 24 hrs

Sequence: LHDFRHQIL (Inhibitory peptide.) [PIP-2]
- effect on ventilation-induced lung injury [1]: protected against lung injury
- aiPLA2 Activity (aiPLA2 activity; 0 days, no PIP-2 100): 29.7 ± 2.9 nmol/min/mg prot.
- aiPLA2 Activity (aiPLA2 activity; 30 d): 31.1 ± 1.3 nmol/min/mg prot.
- aiPLA2 Activity (aiPLA2 activity; 45 d): 31.8 ± 1.0 nmol/min/mg prot.
- aiPLA2 Activity (aiPLA2 activity; 60 d): 32.8 ± 0.9 nmol/min/mg prot.
- aiPLA2 Activity (aiPLA2 activity; 120 d, no PIP-2 at 120 d 103): 31.9 ± 2.4 nmol/min/mg prot.
- stability as dry powder (aiPLA2 activity; room temp., 4 months of observation): stable
- mice fully recovered ([2]; PIP-2 2 μg/g IV): 43%
- survival at 36 h after LPS ([2]; PIP-2 2 μg/g IV, placebo 100% dead by 48 h): 86%
- long term survival rate ([2]; PIP-2 20 μg/g IV): 70%
- generation of H2O2 (NADPH oxidase (NOX2); PIP-2 2 ug/g in liposomes): markedly inhibits
- effect on the rate of H2O2 production (NADPH oxidase (NOX2); PIP-2 2 ug/g in saline): no effect
- lungs of PIP-2 treated mice that survive high dose LPS (mice, high dose IT LPS; LPS 15 μg/g IT or IP, PIP-2 2 or 20 μg/g IV, 5 days after LPS): normal lungs
- BALf cells (mice, high dose IT LPS; LPS 15 μg/g IT, PIP-2 2 μg/g IV in liposomes 5 doses, survivors sacrificed 120 h after LPS, control 0.95): 0.96 ± 0.40 ×10^4/g body wt.
- Wet/Dry ratio (mice, high dose IT LPS; LPS 15 μg/g IT, PIP-2 2 μg/g IV, survivors at 120 h after LPS, control 5.59): 5.34 ± 0.03
- Protein carbonyls (mice, high dose IT LPS; LPS 15 μg/g IT, PIP-2 2 μg/g IV, survivors at 120 h after LPS, control 5.6): 5.6 ± 0.2 nmol/mg prot
- 8-Isoprostanes (mice, high dose IT LPS; LPS 15 μg/g IT, PIP-2 2 μg/g IV, survivors at 120 h after LPS, control 34): 34 ± 3 pmol/mg prot
- BALf protein (mice, high dose IT LPS; LPS 15 μg/g IT, PIP-2 2 μg/g IV, survivors at 120 h after LPS, control 75): 78 ± 2.2 μg/g wt
- TBARS (mice, high dose IT LPS; LPS 15 μg/g IT, PIP-2 2 μg/g IV, survivors at 120 h after LPS, control 76): 77 ± 1 pmol/mg prot
- mortality (mice, high dose IT LPS; LPS 15 μg/g IT, PIP-2 2 μg/g IV at 12, 24, 48, 72, 96 h after LPS, at 36 h after start of treatment, no further mortality, placebo 100% by 48 h): 17%
- survival (mice, high dose IT LPS; LPS 15 μg/g IT, PIP-2 2 μg/g IV, at 36 h after start of treatment): 83%
- # of cells ([3]; LPS 5 μg/g IT, PIP-2 2 μg/g IT @0 hrs, sacrifice at 24 hrs, control 0.95, LPS 8.67): 0.92 ± 0.02 ×10^4/g wt
- Wet/Dry lung weight ratio ([3]; LPS 5 μg/g IT, PIP-2 2 μg/g IT @0 hrs, sacrifice at 24 hrs, control 5.59, LPS 8.10): 5.50 ± 0.04
- Protein carbonyls ([3]; LPS 5 μg/g IT, PIP-2 2 μg/g IT @0 hrs, sacrifice at 24 hrs, control 5.6, LPS 16.9): 5.4 ± 0.1 nmol/mg prot
- 8-Isoprostanes ([3]; LPS 5 μg/g IT, PIP-2 2 μg/g IT @0 hrs, sacrifice at 24 hrs, control 34, LPS 101): 31 ± 2 pmol/mg prot
- protein ([3]; LPS 5 μg/g IT, PIP-2 2 μg/g IT @0 hrs, sacrifice at 24 hrs, control 75, LPS 164): 71 mg protein/g wt
- TBARS ([3]; LPS 5 μg/g IT, PIP-2 2 μg/g IT @0 hrs, sacrifice at 24 hrs, control 75, LPS 381): 70 ± 2.1 pmol/mg prot.
- 8-Isoprostanes [3, 5]: 38 ± 1 pmol/mg prot
- # of cells [3, 5]: 1.45 ± 0.03 ×10^4/g wt
- Protein carbonyls [3, 5]: 6.4 ± 0.2 nmol/mg prot
- TBARS [3, 5]: 85 ± 5.2 pmol/mg prot.
- Wet/Dry lung weight ratio [3, 5]: 5.95 ± 0.02
- protein [3, 5]: 84 ± 1.2 mg protein/g wt
- 8-Isoprostanes [3, 6]: 40 ± 1 pmol/mg prot
- # of cells [3, 6]: 1.43 ± 0.2 ×10^4/g wt
- Protein carbonyls [3, 6]: 6.4 ± 0.3 nmol/mg prot
- TBARS [3, 6]: 89 ± 9.3 pmol/mg prot.
- Wet/Dry lung weight ratio [3, 6]: 6.19 ± 0.06
- protein [3, 6]: 82.0 ± 1.2 mg protein/g wt
- protection against lung injury ([3]; PIP-2 at 12 or 16 hours after LPS, evaluated at 24 hours): 85-95%
- lung injury, peptide administered along with LPS (0 time) [3]: completely prevented lung injury
- protection against lung injury ([3]; evaluated at 24 hr after IT LPS, PIP-2 at 0, 12 or 16 h after LPS): > 75%
- lung injury, peptide administered at 12-16 hours after LPS [3]: prevents further injury

Sequence: LYEIKHQIL (Inhibitory peptide.) [PIP-4]
- protein ([4]; PIP-4 2 μg/g IT @0 hrs, LPS alone 166): 77 ± 3 μg protein/g wt
- TBARS ([4]; PIP-4 2 μg/g IT @0 hrs, LPS alone 374): 78 ± 4 pmol/mg prot.
- TBARS ([4]; PIP-4 2 μg/g IV @12 hr): 84 ± 2 pmol/mg prot.
- Wet/Dry lung weight ratio ([4]; PIP-4 2 μg/g IV @12 hr): 5.94 ± 0.05
- 8-Isoprostanes [3, 7]: 34 ± 1 pmol/mg prot
- Protein carbonyls [3, 7]: 5.8 ± 0.2 nmol/mg prot
- TBARS [3, 7]: 76 ± 2 pmol/mg prot.
- # of cells [3, 8]: 0.96 ± 0.03 ×10^4/g wt
- Wet/Dry lung weight ratio [3, 8]: 5.59 ± 0.02
- protein [3, 8]: 78 ± 2 μg protein/g wt
- Wet/Dry lung weight ratio ([3]; LPS 5 μg/g IT, PIP-4 2 μg/g IT @0 hrs, sacrifice at 24 hrs, LPS alone 7.40): 6.1 ± 0.01
- # of cells ([3]; LPS 5 μg/g IT, PIP-4 2 μg/g IT @0 hrs, sacrifice at 24 hrs, LPS alone 8.5): 0.95 ± 0.02 ×10^4/g wt
- Protein carbonyls ([3]; LPS 5 μg/g IT, PIP-4 2 μg/g IT @0 hrs, sacrifice at 24 hrs, LPS alone 16.9): 5.9 ± 0.3 nmol/mg prot
- 8-Isoprostanes ([3]; LPS 5 μg/g IT, PIP-4 2 μg/g IT @0 hrs, sacrifice at 24 hrs, LPS alone printed 1.02 ± 3): 32 ± 2 pmol/mg prot
- # of cells [3, 9]: 1.46 ± 0.25 ×10^4/g wt
- Protein carbonyls [3, 9]: 6.4 ± 0.1 nmol/mg prot
- protein [3, 9]: 85 ± 2 μg protein/g wt
- # of cells [3, 10]: 1.44 ± 0.12 ×10^4/g wt
- Protein carbonyls [3, 10]: 6.4 ± 0.1 nmol/mg prot
- TBARS [3, 10]: 85 ± 2 pmol/mg prot.
- Wet/Dry lung weight ratio [3, 10]: 6.12 ± 0.09
- protein [3, 10]: 83 ± 1 μg protein/g wt
- lung injury, peptide administered along with LPS (0 time) [3]: prevents lung injury
- lung injury, peptide administered at 12-16 hours after LPS [3]: prevents further injury
